Values of other authors as cited in PMC2803440 (Current Chemical Genomics, 2008).

Biological target: recombinant variant of PON1

Question: For `Oc1ccc2ccccc2n1` [Compound 2HQ, 2-hydroxyquinoline], which Ki is on record?
Answer: 3000 nM
